Assay results as given in patent US20070213305A1, “N-alkyl-N-aryl-thienopyrimidin-4-amines and analogs as activators of caspases and inducers of apoptosis and the use thereof” (Cytovia, Inc., priority 2005, published 2007).
Structures can show the parent of a compound that is named as a salt. Where two headings read alike, the source gives them in different places.

Experiments:
[1] = test system: human breast cancer cell line T-47D; test: Caspase cascade activation (DEVD-R110 fluorogenic substrate) in T-47D cells; type: cell-based; conditions: 24 h, read-out: Caspase Activation Potency EC50 (nM) (24 h) T-47D
Description: (§1) Human breast cancer cell line T-47D, human lung cancer cell line H1299 and human hepatocellular carcinoma cell line SNU398 were grown according to media component mixtures designated by American Type Culture Collection+10% FCS (Invitrogen Corporation), in a 5% CO2-95% humidity incubator at 37° C. T-47D and H1299 cells were maintained at a cell density between 50 and 80% confluency at a cell density of 0.1 to 0.6×10^6 cells/mL. Cells were harvested at 600×g and resuspended at 0.65×10^6 cells/mL into appropriate media+10% FCS. An aliquot of 22.5 μL of cells was added to a well of a 384-well microtiter plate containing 2.5 μL of a 10% DMSO in RPMI-1640 media solution containing 0.16 to 100 μM of N-(4-methoxyphenyl)-N, 2-dimethylthieno[3,2-d]pyrimidin-4-amine or other test compound (0.016 to 10 μM final). An aliquot of 22.5 μL of cells was added to a well of a 384-well microtiter plate containing 2.5 μL of a 10 % DMSO in RPMI-1640 media solution without test compound as the control sample. The samples were mixed by agitation and then incubated at 37° C. for 24 h or 48 h in a 5% CO2-95% humidity incubator. After incubation, the samples were removed from the incubator and 25 μL of a solution containing 14 μM of N-(Ac-DEVD)-N′-ethoxycarbonyl-R110 (SEQ ID No.:1) fluorogenic substrate (Cytovia, Inc.; WO99/18856), 20% sucrose (Sigma), 20 mM DTT (Sigma), 200 mM NaCI (Sigma), 40 mM Na PIPES buffer pH 7.2 (Sigma), and 500 μg/mL lysolecithin (Calbiochem) was added. The samples were mixed by agitation and incubated at room temperature. Using a fluorescent plate reader (Model SPECTRAfluor Plus, Tecan), an initial reading (T=0) was made approximately 1-2 min after addition of the substrate solution, employing excitation at 485 nm and emission at 530 nm, to determine the background fluorescence of the control sample. After the 3 h incubation, the samples were read for fluorescence as above (T=3 h).
(§2) The Relative Fluorescence Unit values (RFU) were used to calculate the sample readings as follows: RFU(T=3h)-Control RFU(T=0)=Net RFU(T=3h)
(§3) The activity of caspase cascade activation was determined by the ratio of the net RFU value for N-(4-methoxyphenyl)-N,2-dimethylthieno[3,2-d]pyrimidin-4-amine or other test compound to that of control samples. The EC50 (nM) was determined by a sigmoidal dose-response calculation (Prism 3.0, GraphPad Software Inc.).

[2] = test system: human lung cancer cell line H1299; test: Caspase cascade activation (DEVD-R110 fluorogenic substrate) in H1299 cells; type: cell-based; conditions: read-out: Caspase Activation Potency EC50 (nM) (24 h) H1299
Description: as §1, §2, §3

[3] = test system: human hepatocellular carcinoma cell line SNU398; test: Caspase cascade activation (DEVD-R110 fluorogenic substrate) in SNU398 cells; type: cell-based; conditions: SNU398, 24 h, read-out: Caspase Activation Potency EC50 (nM) (24 h) SNU398
Description: as §1, §2, §3
Several compounds were also tested in other cancer cells lines (48 h assay), including human hepatocellular carcinoma cell line SNU398, human colon carcinoma cell line […], human B cell lymphoblastoid cell line Ramos, human Burkitt's lymphoma cell line Namalwa, and cervical cancer cell line HeLa, and the data are summarized in Table II.

MX-1 cells = test: Inhibition of cell proliferation (GI50, CellTiter-Glo) in MX-1 cells; type: cell-based; conditions: Homo sapiens; MX1, 48 h incubation; read-out: GI50 in Cancer Cells GI50 (nM) MX1
Description: (§4) T-47D, HT29, H1299, MX-1 and MDAMB435 cells were grown and harvested as in Example 29. An aliquot of 90 μL of cells (4.4×10^4 cells/mL) was added to a well of a 96-well microtiter plate containing 5 μL of a 10% DMSO in RPMI-1640 media solution containing 10 nM to 100 μM of N-(4-methoxyphenyl)-N,2-dimethylthieno[2,3-d]pyrimidin-4-amine (1 nM to 10 μM final) or related compounds. An aliquot of […] of cells was added to a well of a 96-well microtiter plate containing 5 μL of a 10% DMSO in RPMI-1640 media solution without compound as the control sample for maximal cell proliferation (LMax). The samples were mixed by agitation and then incubated at 37° C. for 48 h in a 5% CO2-95% humidity incubator. After incubation, the samples were removed from the incubator and 25 μL of CellTiter-Glo™ reagent (Promega) was added. The samples were mixed by agitation and incubated at room temperature for 10-15 min. Plates were then read using a luminescent plate reader (Model SPECTRAfluor Plus, Tecan) to give Ltest values.
(§5) The samples were mixed by agitation and then incubated at 37° C. for 0.5 h in a 5% CO2-95% humidity incubator. After incubation, the samples were removed from the incubator and 25 μL of CellTiter-Glo™ reagent (Promega) was added. The samples were mixed by agitation and incubated at […] room temperature in a 5% CO2-95% humidity incubator. […] was read as above, (Lstart) defining luminescence for initial cell number used as baseline in GI50 determinations. ps Calculation:
(§6) GI50 (dose for 50% inhibition of cell proliferation) is the concentration where [(LTest-LStart)/(LMax-LStart)]=0.5.

HT29 cells = test: Inhibition of cell proliferation (GI50, CellTiter-Glo) in HT29 cells; type: cell-based; conditions: Homo sapiens, HT-29; HT29, 48 h incubation; read-out: GI50 in Cancer Cells GI50 (nM) HT29
Description: as §4, §5, §6

H1299 cells = test: Inhibition of cell proliferation (GI50, CellTiter-Glo) in H1299 cells; type: cell-based, human; conditions: Homo sapiens, NCI-H1299; H1299, 48 h incubation; read-out: GI50 in Cancer Cells GI50 (nM) H1299
Description: as §4, §5, §6

MDAMB435 cells = test: Inhibition of cell proliferation (GI50, CellTiter-Glo) in MDAMB435 cells; type: cell-based; conditions: Homo sapiens, MDA-MB-435; MDAMB435, 48 h incubation; read-out: GI50 in Cancer Cells GI50 (nM) MDAMB435
Description: as §4, §5, §6

T-47D cells = test: Inhibition of cell proliferation (GI50, CellTiter-Glo) in T-47D cells; type: cell-based, human; conditions: Homo sapiens; T47D, 48 h incubation; read-out: GI50 in Cancer Cells GI50 (nM) T47D
Description: as §4, §5, §6

Structure (SMILES) | EC50 ([1]; Homo sapiens, T47D) | EC50 ([2]; Homo sapiens, NCI-H1299, 24 h) | further results
COc1cc(OC)cc(N(C)c2ncnc3ccsc23)c1 [Example 28, N-(3,5-dimethoxyphenyl)-N-methylthieno[3,2-d]pyrimidin-4-amine] | > 10000 nM | > 10000 nM | 
COc1ccc(N(C)c2ncnc3scc(C)c23)cc1 [Example 12, N-(4-Methoxyphenyl)-N,5-dimethylthieno[2,3-d]pyrimidin-4-amine] | 12 nM | 19 nM | EC50 ([3]; Homo sapiens, SNU-398): 15 nM
COc1ccc(N(C)c2ncnc3cc(I)sc23)cc1 [Example 7, 6-Iodo-N-(4-methoxyphenyl)-N-methylthieno[3,2-d]pyrimidin-4-amine] | > 10000 nM | > 10000 nM | 
COc1ccccc1N(C)c1ncnc2ccsc12 [Example 25, N-(2-Methoxyphenyl)-N-methylthieno[3,2-d]pyrimidin-4-amine] | > 10000 nM | > 10000 nM | 
COc1ccc(N(C)c2nc(-c3ccccc3)nc3ccsc23)cc1 [Example 19, N-(4-Methoxyphenyl)-N-methyl-2-phenylthieno[3,2-d]pyri idin-4-amine hydrochloride] |  |  | EC50 [1]: 337 nM; EC50 ([2]; H1299, 24 h): 615 nM
COc1ccc(Nc2ncnc3ccsc23)cc1 [Example 14, N-(4-Methoxyphenyl)-thieno[3,2-d]pyrimidin-4-amine hydrochloride] | > 10000 nM | > 10000 nM | 
COc1ccc(Nc2ncnc3scc(C)c23)cc1 [Example 11, N-(4-Methoxyphenyl)-5-methylthieno[2,3-d]pyrimidin-4-amine] | > 10000 nM | > 10000 nM | 
COc1ccc(N(C)c2ncnc3sc(C)c(C)c23)cc1 [Example 23, N-(4-Methoxyphenyl)-N,5,6-trimethylthieno[2,3-d]pyrimidin-4-amine] | 19 nM | 51 nM | EC50 ([3]; Homo sapiens, SNU-398): 30 nM
COc1ccc(N(C)c2nc(C)nc3sccc23)cc1 [Example 2, N-(4-Methoxyphenyl)-N,2-dimethylthieno[2,3-d]pyrimidin-4-amine] |  |  | GI50 (MX-1 cells): 5 nM; GI50 (HT29 cells): 26 nM; GI50 (H1299 cells): 9 nM; GI50 (MDAMB435 cells): 2 nM; EC50 [1]: 9 nM; GI50 (T-47D cells): 5 nM; EC50 ([2]; H1299, 24 h): 15 nM
COc1ccc(N(C)c2ncnc3ccsc23)cc1OC [Example 26, N-(3,4-Dimethoxyphenyl)-N-methylthieno[3,2-d]pyrimidin-4-amine] | 1630 nM | 2620 nM | 
Cc1cc(N(C)c2ncnc3ccsc23)no1 [Example 17, N-Methyl-N-(5-methylisoxazol-3-yl)thieno[3,2-d]pyrimidin-4-amine] | > 10000 nM | > 10000 nM | 
COc1ccc(N(C)c2ncnc3sc(C)cc23)cc1 [Example 18, N-(4-Methoxy-phenyl)-N,6-dimethylthieno[2,3-d]pyrimidin-4-amine hydrochloride] | 125 nM | 184 nM | 
COc1ccc(OC)c(N(C)c2nc(C)nc3ccsc23)c1 [Example 16, N-(2,5-Dimethoxyphenyl)-N,2-dimethylthieno[3,2-d]pyrimidin-4-amine] | > 10000 nM | > 10000 nM | 
COc1ccc(N(C)c2ncnc3sccc23)cc1 [Example 9, N-(4-Methoxyphenyl)-N-methylthieno[2,3-d]pynimidin-4-amine] |  |  | EC50 [3]: 57 nM; EC50 [1]: 19 nM; EC50 ([2]; H1299, 24 h): 41 nM
COc1ccc(OC)c(N(C)c2ncnc3ccsc23)c1 [Example 21, N-(2,5 -Dimethoxyphenyl)-N-methylthieno[3,2-d]pyrimidin-4-amin] | 2500 nM | 4940 nM | 
COc1ccc(N(C)c2ncnc3c(C)csc23)cc1 [Example 10, N-(4-Methoxyphenyl)-N,7-dimethylthieno[3,2-d]pyrimidin-4-amine] | 518 nM | 525 nM | 
COc1ccc(Nc2nc(C)nc3scc(C)c23)cc1 [Example 13, N-(4-Methoxyphenyl)-2,5-dimethylthieno[2,3-d]pyrimidin-4-amine hydrochloride] | > 10000 nM | > 10000 nM | 

Continued, in another order:

EC50 ([1]; Homo sapiens, T47D) | EC50 ([2]; Homo sapiens, NCI-H1299, 24 h) | Structure (SMILES) | further results
> 10000 nM | > 10000 nM | COc1cccc(N(C)c2ncnc3ccsc23)c1 [Example 27, N-(3-methoxyphenyl)-N-methylthieno[3,2-d]pyrimidin-4-amine] | 
> 10000 nM | > 10000 nM | COc1ccc(N(C)c2ncnc3cc(-c4cccnc4)sc23)cc1 [Example 8, N-(4-Methoxyphenyl)-N-methyl-6-(pyridin-3-yl)thieno[3,2-d]pyrimidin-4-amine] | 
185 nM | 327 nM | COC(=O)c1ccc(N(C)c2ncnc3ccsc23)cc1 [Example 22, N-(4-Methoxycarbonylphenyl)-N-methylthieno[3,2-d]pyrimidin-4-amine hydrochloride] | 
233 nM | 281 nM | COc1ccc(N(C)c2nc(C)nc3c(C)csc23)cc1 [Example 3, N-(4-Methoxyphenyl)-N,2,7-trimethylthieno[3,2-d]pyrimidin-4-amine] | 
36 nM | 28 nM | COc1ccc(N(C)c2nc(SC)nc3ccsc23)cc1 [Example 20, N-(4-Methoxyphenyl)-N-methyl-2-(methylthio)thieno[3,2-d]pyrimidin-4-amine hydrochloride] | EC50 ([3]; Homo sapiens, SNU-398): 81 nM
